Experimental data as given in patent US5416081A, “Cephalosporin compounds” (Lucky Limited, priority 1992, dated 1995).
Values after ≈ are worked out from the molar mass of the structure shown. Where two headings read alike, the source gives them in different places.

Columns and labels:
Assay type in all cases: cell-based
S. aureus/6538pA = assay: MIC against standard strain by two-fold agar dilution, S. aureus/6538pA; conditions: Staphylococcus aureus
Protocol: (§1) These MIC values were taken by employing a two-fold dilution method: that is, two-fold serial dilutions of each of the test compounds were made and dispersed in a Muller-Hinton agar medium; 2 μl of the standard test strain which had the 10^7 CFU(Colony Forming Unit) per ml was inoculated on the medium; and these were incubated at 37° C. for 20 hours.

S. aureus/giorigio = assay: MIC against standard strain by two-fold agar dilution, S. aureus/giorigio; conditions: Staphylococcus aureus
Protocol: as §1

S. aureus/77 = assay: MIC against standard strain by two-fold agar dilution, S. aureus/77; conditions: Staphylococcus aureus
Protocol: as §1

E. coli/10536 = assay: MIC against standard strain by two-fold agar dilution, E. coli/10536; conditions: Escherichia coli
Protocol: as §1

E. coli/3190Y = assay: MIC against standard strain by two-fold agar dilution, E. coli/3190Y; conditions: Escherichia coli; E. coli/3190Y; Muller-Hinton agar, 37° C., 20 hours; read-out: MIC
Protocol: as §1

E. coli TEM1/1193E = assay: MIC against standard strain by two-fold agar dilution, E. coli TEM1/1193E; conditions: Escherichia coli, 20 h
Protocol: as §1

E. coli TEM5/3739E = assay: MIC against standard strain by two-fold agar dilution, E. coli TEM5/3739E; conditions: Escherichia coli, 20 h
Protocol: as §1

E. coli TEM9/2639E = assay: MIC against standard strain by two-fold agar dilution, E. coli TEM9/2639E; conditions: Escherichia coli, 20 h
Protocol: as §1

P. aeruginosa/1912E = assay: MIC against standard strain by two-fold agar dilution, P. aeruginosa/1912E; conditions: Pseudomonas aeruginosa; P. aeruginosa/1912E; Muller-Hinton agar, 37° C., 20 hours; read-out: MIC
Protocol: as §1

P. aeruginosa/10145 = assay: MIC against standard strain by two-fold agar dilution, P. aeruginosa/10145; conditions: Pseudomonas aeruginosa; P. aeruginosa/10145; Muller-Hinton agar, 37° C., 20 hours; read-out: MIC
Protocol: as §1

P. aeruginosa/6065Y = assay: MIC against standard strain by two-fold agar dilution, P. aeruginosa/6065Y; conditions: Pseudomonas aeruginosa; P. aeruginosa/6065Y; Muller-Hinton agar, 37° C., 20 hours; read-out: MIC
Protocol: as §1

A. calcoaceticus /15473A = assay: MIC against standard strain by two-fold agar dilution, A. calcoaceticus /15473A; conditions: Acinetobacter calcoaceticus; A. calcoaceticus /15473A; Muller-Hinton agar, 37° C., 20 hours; read-out: MIC
Protocol: as §1

E. cloacae/1194E = assay: MIC against standard strain by two-fold agar dilution, E. cloacae/1194E; conditions: Enterobacter cloacae; E. cloacae/1194E; Muller-Hinton agar, 37° C., 20 hours; read-out: MIC
Protocol: as §1

K. aerogenes/1776E = assay: MIC against standard strain by two-fold agar dilution, K. aerogenes/1776E; conditions: Klebsiella aerogenes; K. aerogenes/1776E; Muller-Hinton agar, 37° C., 20 hours; read-out: MIC
Protocol: as §1

S. marcescens/1826E = assay: MIC against standard strain by two-fold agar dilution, S. marcescens/1826E; conditions: Serratia marcescens; S. marcescens/1826E; Muller-Hinton agar, 37° C., 20 hours; read-out: MIC
Protocol: as §1

S. typhimunium/14028A = assay: MIC against standard strain by two-fold agar dilution, S. typhimunium/14028A; conditions: S. typhimunium/14028A; Muller-Hinton agar, 37° C., 20 hours; read-out: MIC
Protocol: as §1

[1] = S. aureus/77, Muller-Hinton agar, 37° C., 20 hours, read-out: MIC
[2] = S. aureus/6538pA, Muller-Hinton agar, 37° C., 20 hours, read-out: MIC
[3] = S. aureus/giorigio, Muller-Hinton agar, 37° C., 20 hours, read-out: MIC
[4] = E. coli/10536, Muller-Hinton agar, 37° C., 20 hours, read-out: MIC

CC(C)(O/N=C(\C(=O)NC1C(=O)N2C(C(=O)[O-])=C(CSc3nc(N)c4c([n+]3N)CCC4)CSC12)c1csc(N)n1)C(=O)O (stereo not drawn) [Compound I-1, 7-[(Z)-2-(2-aminothiazol-4-yl)-2-(2-carboxyprop-2-oxyimino)acetamido]-3-(1,4-diamino-1,5,6,7-tetrahydro-cyclopentapyrimidinium-2-yl)thiomethyl-3-cephem-4-carboxylate] gave an MIC (S. aureus/6538pA; 20 h) of 2 µg/mL (≈ 3.08 µM), an MIC (S. aureus/giorigio; 20 h) of 1 µg/mL (≈ 1.54 µM) and an MIC (S. aureus/77; [1]) of 4 µg/mL (≈ 6.16 µM). It also gave an MIC (E. coli/10536; 20 h) of 0.063 µg/mL (≈ 0.097 µM), an MIC (E. coli/3190Y) of 0.016 µg/mL (≈ 0.0246 µM) and an MIC (E. coli TEM1/1193E) of 0.063 µg/mL (≈ 0.097 µM). It also gave an MIC (E. coli TEM5/3739E) of 0.25 µg/mL (≈ 0.385 µM), an MIC (E. coli TEM9/2639E) of 2 µg/mL (≈ 3.08 µM) and an MIC (P. aeruginosa/1912E) of 0.5 µg/mL (≈ 0.77 µM). For the same compound, the MIC (P. aeruginosa/10145) was 1 µg/mL (≈ 1.54 µM), the MIC (P. aeruginosa/6065Y) was 4 µg/mL (≈ 6.16 µM) and the MIC (A. calcoaceticus /15473A) was 2 µg/mL (≈ 3.08 µM). For the same compound, the MIC (E. cloacae/1194E) was 4 µg/mL (≈ 6.16 µM), the MIC (K. aerogenes/1776E) was 0.13 µg/mL (≈ 0.2 µM) and the MIC (S. marcescens/1826E) was 0.25 µg/mL (≈ 0.385 µM). The MIC (S. typhimunium/14028A) was 0.13 µg/mL (≈ 0.2 µM).
Compound C[n+]1c(SCC2=C(C(=O)[O-])N3C(=O)C(NC(=O)/C(=N\OC(C)(C)C(=O)O)c4csc(N)n4)C3SC2)nc(N)c2c1CCC2 (stereo not drawn) [Compound I-2, 7-[(Z)-2-(2-aminothiazol-4-yl)-2-(2-carboxyprop-2-oxyimino)acetamido]-3-(4-amino-1-methyl-1,5,6,7-tetrahydro-cyclopentapyrimidinium-2-yl)thiomethyl-3-cephem-4-carboxylate] has an MIC (S. aureus/6538pA; [2]) of 2 µg/mL (≈ 3.08 µM), an MIC (S. aureus/giorigio; [3]) of 1 µg/mL (≈ 1.54 µM) and an MIC (S. aureus/77; 20 h) of 8 µg/mL (≈ 12.3 µM). It also gave an MIC (E. coli/10536; [4]) of 0.13 µg/mL (≈ 0.2 µM), an MIC (E. coli/3190Y) of 0.063 µg/mL (≈ 0.0971 µM) and an MIC (E. coli TEM1/1193E) of 0.13 µg/mL (≈ 0.2 µM). It also gave an MIC (E. coli TEM5/3739E) of 0.5 µg/mL (≈ 0.771 µM), an MIC (E. coli TEM9/2639E) of 2 µg/mL (≈ 3.08 µM) and an MIC (P. aeruginosa/1912E) of 0.5 µg/mL (≈ 0.771 µM). It also gave an MIC (P. aeruginosa/10145) of 1 µg/mL (≈ 1.54 µM), an MIC (P. aeruginosa/6065Y) of 4 µg/mL (≈ 6.17 µM) and an MIC (A. calcoaceticus /15473A) of 1 µg/mL (≈ 1.54 µM). It also gave an MIC (E. cloacae/1194E) of 4 µg/mL (≈ 6.17 µM), an MIC (K. aerogenes/1776E) of 0.13 µg/mL (≈ 0.2 µM) and an MIC (S. marcescens/1826E) of 0.5 µg/mL (≈ 0.771 µM). For the same compound, the MIC (S. typhimunium/14028A) was 0.25 µg/mL (≈ 0.385 µM).
Nc1nc(/C(=N/OCC(=O)O)C(=O)NC2C(=O)N3C(C(=O)[O-])=C(CSc4nc(N)c5c([n+]4N)CCC5)CSC23)cs1 (stereo not drawn) [Compound I-8, 7-[(Z)-2-(2-aminothiazol-4-yl)-2-(1-carboxymeth-1-oxyimino)acetamido]-3-(1,4-diamino-1,5,6,7-tetrahydro-cyclopentapyrimidinium-2-yl)thiomethyl-3-cephem-4-carboxylate] gave an MIC (S. aureus/6538pA; [2]) of 2 µg/mL (≈ 3.22 µM), an MIC (S. aureus/giorigio; [3]) of 2 µg/mL (≈ 3.22 µM) and an MIC (S. aureus/77; [1]) of 4 µg/mL (≈ 6.43 µM). The MIC (E. coli/10536; [4]) was 0.016 µg/mL (≈ 0.0257 µM), the MIC (E. coli/3190Y) was 0.063 µg/mL (≈ 0.101 µM) and the MIC (E. coli TEM1/1193E) was 0.28 µg/mL (≈ 0.45 µM). It also gave an MIC (E. coli TEM5/3739E) of 2 µg/mL (≈ 3.22 µM), an MIC (E. coli TEM9/2639E) of 2 µg/mL (≈ 3.22 µM) and an MIC (P. aeruginosa/1912E) of 1 µg/mL (≈ 1.61 µM). The MIC (P. aeruginosa/10145) was 1 µg/mL (≈ 1.61 µM), the MIC (P. aeruginosa/6065Y) was 4 µg/mL (≈ 6.43 µM) and the MIC (A. calcoaceticus /15473A) was 4 µg/mL (≈ 6.43 µM). The MIC (E. cloacae/1194E) was 8 µg/mL (≈ 12.9 µM), the MIC (K. aerogenes/1776E) was 0.25 µg/mL (≈ 0.402 µM) and the MIC (S. marcescens/1826E) was 0.13 µg/mL (≈ 0.209 µM). The MIC (S. typhimunium/14028A) was 0.25 µg/mL (≈ 0.402 µM).
For CO/N=C(\C(=O)NC1C(=O)N2C(C(=O)[O-])=C(CSc3nc(N)c4c([n+]3N)CCC4)CSC12)c1csc(N)n1 (stereo not drawn) [Compound I-10, 7-[(Z)-2-(2-aminothiazol-4-yl)-2-(methoxyimino)acetamido]-3-(1,4-diamino-1,5,6,7-tetrahydro-cyclopentapyrimidinium-2-yl)thiomethyl-3-cephem-4-carboxylate], the MIC (S. aureus/6538pA; 20 h) was 0.25 µg/mL (≈ 0.433 µM), the MIC (S. aureus/77; [1]) was 0.13 µg/mL (≈ 0.225 µM) and the MIC (E. coli/10536; [4]) was 0.016 µg/mL (≈ 0.0277 µM). The MIC (E. coli/3190Y) was 0.016 µg/mL (≈ 0.0277 µM), the MIC (E. coli TEM1/1193E) was 0.016 µg/mL (≈ 0.0277 µM) and the MIC (E. coli TEM5/3739E) was 0.25 µg/mL (≈ 0.433 µM). The MIC (E. coli TEM9/2639E) was 0.5 µg/mL (≈ 0.866 µM), the MIC (P. aeruginosa/1912E) was 2 µg/mL (≈ 3.46 µM) and the MIC (P. aeruginosa/10145) was 4 µg/mL (≈ 6.92 µM). It also gave an MIC (P. aeruginosa/6065Y) of 16 µg/mL (≈ 27.7 µM), an MIC (A. calcoaceticus /15473A) of 4 µg/mL (≈ 6.92 µM) and an MIC (E. cloacae/1194E) of 16 µg/mL (≈ 27.7 µM). For the same compound, the MIC (K. aerogenes/1776E) was 0.5 µg/mL (≈ 0.866 µM), the MIC (S. marcescens/1826E) was 0.25 µg/mL (≈ 0.433 µM) and the MIC (S. typhimunium/14028A) was 0.25 µg/mL (≈ 0.433 µM).
